Where a name gives a salt, the structure may show the parent alone. Read-outs that look alike come from different tables or passages of the source.
Assays:
[1] = molecular target: T1, shikimate dehydrogenase (SaSDH) (Staphylococcus aureus, UniProt Q6GGA5); assay: biochemical; parameters: SaSDH enzyme activity inhibition screening at 500 uM, 10% DMSO
T1 construct: gene aroE
T1 sequence (Q6GGA5 1-268): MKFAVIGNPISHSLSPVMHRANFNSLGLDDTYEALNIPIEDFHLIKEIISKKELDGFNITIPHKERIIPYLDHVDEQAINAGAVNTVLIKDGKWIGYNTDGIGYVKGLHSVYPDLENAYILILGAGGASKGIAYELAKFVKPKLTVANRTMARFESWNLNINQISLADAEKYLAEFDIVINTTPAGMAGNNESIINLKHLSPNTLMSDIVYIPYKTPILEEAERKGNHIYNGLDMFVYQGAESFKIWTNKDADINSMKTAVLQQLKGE
Description: The inhibition percentage was determined by measuring enzyme activity under the conditions previously described by adding each compound from an in-house natural product derivative chemical library (40 compounds) to the reaction mixture at quantities of 500 μM; these compounds had been previously dissolved in Dimethyl Sulfoxide (DMSO), keeping 10% DMSO as final concentration. The percentage inhibition was calculated by adjusting the data from the following equation [33]: Inhibition %=A0−A1/A0 ×100 where the following definitions are used: In the search for new SaSDH inhibitors, an in-house chemical library of 40 natural product derivatives was screened against SaSDH activity. Our findings indicate that among the 40 molecules evaluated, the compounds phloridzin (93% of inhibition), rutin (87% of inhibition), and caffeic acid (70% of inhibition) inhibited SaSDH using a 500 µM concentration.

[2] = molecular target: T2, shikimate dehydrogenase (SaSDH) (Staphylococcus aureus, UniProt Q6GGA5); assay: recombinant enzyme activity, NADPH formation at […] nm, dose-response; progress-curve kinetics; assay type: biochemical
T2 construct: gene aroE

Row | SMILES | inhibition at 500 µM [1] [%] | further results
1 | Cn1ccnc1S(=O)(=O)Cl [1-Methylimidazole-2-sulfonyl chloride] | 13 | 
2 | O=Cc1c[nH]c2c1ccc1ccccc12 [1H-Benzo[g]indole-3-carboxaldehyde] | 19 | 
3 | Clc1ccnc(Cl)c1 [2,4-Dichloropyridine] | 19 | 
4 | Nc1nc(-c2ccc3c(c2)CCCC3)cs1 [2-Amino-4-(5,6,7,8-tetrahydronaphthalen-2-yl)thiazole] | 8 | 
5 | Nc1ccc(Br)cn1 [2-Amino-5-bromopyridine] | 8 | 
6 | N#Cc1cnc(N)s1 [2-Aminothiazole-5-carbonitrile] | 17 | 
7 | Brc1nc2ccccc2[nH]1 [2-Bromo-1H-benzimidazole] | 10 | 
8 | Fc1ccc(Cl)nc1 [2-Chloro-5-fluoropyridine] | 18 | 
9 | O=C1CNCCN1 [2-Oxopiperazine] | 13 | 
10 | C1SCC2OC12 (centres unmarked) [3,4-Epoxy-tetrahydrothiophene] | 9 | 
11 | COc1cccc(C(=O)O)c1 [3-Methoxybenzoic acid] | 2 | 
12 | Cc1ncc(CO)c(C)c1O [4-Deoxypyridoxine hydrochloride] | 12 | 
13 | FC(F)(F)c1ccc(Br)cn1 [5-Bromo-2-(trifluoromethyl)pyridine] | 9 | 
14 | O=c1[nH]cc(Br)cc1[N+](=O)[O-] [5-Bromo-2-hydroxy-3-nitropyridine] | 18 | 
15 | O=C(Cl)c1nc2ccccc2s1 [Benzothiazole-2-carbonyl chloride] | 14 | 
16 | O=C(O)/C=C/c1ccc(O)c(O)c1 [Caffeic acid] |  | IC50 [2]: 240 µM
17 | COC(=O)c1nc[nH]c1C(=O)OC [Dimethyl imidazole-4,5-dicarboxylate] | 18 | 
18 | COc1ccc(-c2coc3cc(O)ccc3c2=O)cc1 [Formononetin] | 13 | 
19 | O=C1O[C@H]([C@@H](O)CO)C(O)=C1O [L-Ascorbic acid] | 4.5 | 
20 | CC(C)=CCC1=C(O)C(=O)c2ccccc2C1=O [Lapachol] | 6 | 
21 | COc1cc(C(=O)OCCCCNC(=N)N)cc(OC)c1O [Leonurine] | 13 | 
22 | CC1=CC(=O)c2ccccc2C1=O [Menadione] | 17 | 
23 | COC(=O)c1ccc(OC)cc1O [Methyl 4-methoxysalicylate] | 10 | 
24 | NC(=O)c1cccnc1 [Nicotinamide] | 5 | 
25 | O=C(O)c1cccnc1 [Nicotinic acid] | 20 | 
26 | O=C(CCc1ccc(O)cc1)c1c(O)cc(O)cc1O[C@@H]1O[C@H](CO)[C@@H](O)[C@H](O)[C@H]1O [Phloridzin] |  | IC50 [2]: 140 µM
27 | Cc1ncc(CO)c(CO)c1O [Pyridoxine] | 28 | 
28 | C[C@@H]1O[C@@H](OC[C@H]2O[C@@H](Oc3c(-c4ccc(O)c(O)c4)oc4cc(O)cc(O)c4c3=O)[C@H](O)[C@@H](O)[C@@H]2O)[C@H](O)[C@H](O)[C@H]1O [Rutin] |  | IC50 ([2]; read-out: IC50): 165 µM
29 | OC[C@H]1O[C@@H](OCCc2ccc(O)cc2)[C@H](O)[C@@H](O)[C@@H]1O [Salidroside] | 27 | 

Reference: PMC12383815 (Biomolecules, 2025)
